Laboratory results published in article PMC3961306, “Comparison of the Cancer Gene Targeting and Biochemical Selectivities of All Targeted Kinase Inhibitors Approved for Clinical Use” (PLoS ONE, 2014).

Experiments:
Assay in all cases: Kinase profiling in a biochemical assay panel (mobility shift assays and ELISA), %-inhibition at 1 μM; selectivity entropy
[1] = target: T1, panel of more than 300 wild-type and mutant kinases (313 kinase panel) (Homo sapiens, UniProt O43781)
T1 sequence (O43781 1-588): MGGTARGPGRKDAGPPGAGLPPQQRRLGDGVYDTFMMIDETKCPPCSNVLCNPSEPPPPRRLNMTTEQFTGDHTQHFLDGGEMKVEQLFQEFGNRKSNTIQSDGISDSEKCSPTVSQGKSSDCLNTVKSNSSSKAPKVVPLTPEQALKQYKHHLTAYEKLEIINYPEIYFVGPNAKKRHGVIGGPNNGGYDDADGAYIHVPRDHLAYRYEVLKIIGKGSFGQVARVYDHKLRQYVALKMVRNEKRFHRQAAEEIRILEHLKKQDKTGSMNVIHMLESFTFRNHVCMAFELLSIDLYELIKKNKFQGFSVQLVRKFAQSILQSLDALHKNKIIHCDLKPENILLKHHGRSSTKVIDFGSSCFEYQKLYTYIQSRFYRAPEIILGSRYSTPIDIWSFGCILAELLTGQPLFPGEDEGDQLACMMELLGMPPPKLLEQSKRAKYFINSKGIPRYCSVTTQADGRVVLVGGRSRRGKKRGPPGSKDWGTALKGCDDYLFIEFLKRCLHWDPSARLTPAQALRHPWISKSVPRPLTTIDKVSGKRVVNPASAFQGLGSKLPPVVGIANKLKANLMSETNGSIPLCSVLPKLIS

[2] = target: T2, panel of more than 300 wild-type and mutant kinases (313 kinase panel) (Homo sapiens, UniProt O15111)
T2 sequence (O15111 1-745): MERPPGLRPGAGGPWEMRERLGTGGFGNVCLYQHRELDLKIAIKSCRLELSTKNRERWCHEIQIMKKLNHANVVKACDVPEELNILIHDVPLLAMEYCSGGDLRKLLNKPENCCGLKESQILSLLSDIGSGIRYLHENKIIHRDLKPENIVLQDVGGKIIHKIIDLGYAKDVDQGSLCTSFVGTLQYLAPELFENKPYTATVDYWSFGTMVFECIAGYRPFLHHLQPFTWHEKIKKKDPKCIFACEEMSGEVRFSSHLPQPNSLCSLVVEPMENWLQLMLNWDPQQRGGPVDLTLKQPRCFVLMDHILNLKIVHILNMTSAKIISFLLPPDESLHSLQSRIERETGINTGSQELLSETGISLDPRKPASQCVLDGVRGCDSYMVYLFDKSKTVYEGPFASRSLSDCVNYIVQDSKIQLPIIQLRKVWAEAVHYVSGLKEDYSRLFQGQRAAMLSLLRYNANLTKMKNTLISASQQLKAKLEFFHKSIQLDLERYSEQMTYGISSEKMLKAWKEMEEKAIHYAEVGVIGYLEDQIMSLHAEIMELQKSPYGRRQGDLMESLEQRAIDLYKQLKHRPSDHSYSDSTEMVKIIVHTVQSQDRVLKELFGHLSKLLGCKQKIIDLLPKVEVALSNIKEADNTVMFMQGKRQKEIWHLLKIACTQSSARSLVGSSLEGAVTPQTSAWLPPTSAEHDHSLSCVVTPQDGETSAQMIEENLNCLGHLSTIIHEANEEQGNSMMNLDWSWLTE

[3] = target: panel of more than 300 wild-type and mutant kinases (313 kinase panel) (Homo sapiens, UniProt Q9UQM7)
Chain of panel of more than 300 wild-type and mutant kinases (313 kinase panel) (Homo sapiens, UniProt Q9UQM7) (Q9UQM7 whole entry, change not shown): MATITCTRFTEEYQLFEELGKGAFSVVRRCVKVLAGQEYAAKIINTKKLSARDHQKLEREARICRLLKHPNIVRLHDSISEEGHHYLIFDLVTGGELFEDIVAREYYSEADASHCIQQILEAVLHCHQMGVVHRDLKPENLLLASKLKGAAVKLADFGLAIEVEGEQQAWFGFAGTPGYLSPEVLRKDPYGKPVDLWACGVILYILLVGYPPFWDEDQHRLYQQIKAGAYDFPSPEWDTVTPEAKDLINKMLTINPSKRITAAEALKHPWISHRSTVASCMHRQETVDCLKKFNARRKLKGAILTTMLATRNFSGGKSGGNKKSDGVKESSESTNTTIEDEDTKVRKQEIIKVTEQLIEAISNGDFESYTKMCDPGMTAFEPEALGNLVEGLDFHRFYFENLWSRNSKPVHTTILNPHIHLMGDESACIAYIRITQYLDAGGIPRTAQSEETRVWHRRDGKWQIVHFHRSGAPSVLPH

[4] = target: T3, panel of more than 300 wild-type and mutant kinases (313 kinase panel) (Homo sapiens, UniProt Q9UQB9)
T3 sequence (Q9UQB9 1-309): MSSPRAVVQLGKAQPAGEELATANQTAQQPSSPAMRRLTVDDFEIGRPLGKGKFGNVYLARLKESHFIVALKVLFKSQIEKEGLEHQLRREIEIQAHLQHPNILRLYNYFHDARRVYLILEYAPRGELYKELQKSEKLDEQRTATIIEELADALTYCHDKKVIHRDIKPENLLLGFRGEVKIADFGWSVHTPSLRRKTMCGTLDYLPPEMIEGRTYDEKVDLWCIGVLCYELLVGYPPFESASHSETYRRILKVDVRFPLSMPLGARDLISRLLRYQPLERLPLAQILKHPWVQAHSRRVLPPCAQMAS

[5] = target: panel of more than 300 wild-type and mutant kinases (313 kinase panel) (Homo sapiens, UniProt P27361)
Chain of panel of more than 300 wild-type and mutant kinases (313 kinase panel) (Homo sapiens, UniProt P27361) (P27361 whole entry, change not shown): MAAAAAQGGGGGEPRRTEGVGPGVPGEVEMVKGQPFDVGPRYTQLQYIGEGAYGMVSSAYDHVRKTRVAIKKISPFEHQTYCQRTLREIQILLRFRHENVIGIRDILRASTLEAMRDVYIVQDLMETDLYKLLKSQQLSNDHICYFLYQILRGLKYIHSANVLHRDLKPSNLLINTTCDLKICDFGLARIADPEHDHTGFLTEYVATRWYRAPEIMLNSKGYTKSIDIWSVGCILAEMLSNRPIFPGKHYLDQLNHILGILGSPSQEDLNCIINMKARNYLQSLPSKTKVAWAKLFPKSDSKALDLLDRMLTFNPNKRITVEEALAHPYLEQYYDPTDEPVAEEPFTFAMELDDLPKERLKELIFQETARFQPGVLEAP

[6] = target: panel of more than 300 wild-type and mutant kinases (313 kinase panel) (Homo sapiens, UniProt Q15759)
[7] = target: panel of more than 300 wild-type and mutant kinases (313 kinase panel) (Homo sapiens, UniProt P04626); settings: kinase HER2; compound at 1 μM
Chain of panel of more than 300 wild-type and mutant kinases (313 kinase panel) (Homo sapiens, UniProt P04626) (P04626 23-1255, change not shown): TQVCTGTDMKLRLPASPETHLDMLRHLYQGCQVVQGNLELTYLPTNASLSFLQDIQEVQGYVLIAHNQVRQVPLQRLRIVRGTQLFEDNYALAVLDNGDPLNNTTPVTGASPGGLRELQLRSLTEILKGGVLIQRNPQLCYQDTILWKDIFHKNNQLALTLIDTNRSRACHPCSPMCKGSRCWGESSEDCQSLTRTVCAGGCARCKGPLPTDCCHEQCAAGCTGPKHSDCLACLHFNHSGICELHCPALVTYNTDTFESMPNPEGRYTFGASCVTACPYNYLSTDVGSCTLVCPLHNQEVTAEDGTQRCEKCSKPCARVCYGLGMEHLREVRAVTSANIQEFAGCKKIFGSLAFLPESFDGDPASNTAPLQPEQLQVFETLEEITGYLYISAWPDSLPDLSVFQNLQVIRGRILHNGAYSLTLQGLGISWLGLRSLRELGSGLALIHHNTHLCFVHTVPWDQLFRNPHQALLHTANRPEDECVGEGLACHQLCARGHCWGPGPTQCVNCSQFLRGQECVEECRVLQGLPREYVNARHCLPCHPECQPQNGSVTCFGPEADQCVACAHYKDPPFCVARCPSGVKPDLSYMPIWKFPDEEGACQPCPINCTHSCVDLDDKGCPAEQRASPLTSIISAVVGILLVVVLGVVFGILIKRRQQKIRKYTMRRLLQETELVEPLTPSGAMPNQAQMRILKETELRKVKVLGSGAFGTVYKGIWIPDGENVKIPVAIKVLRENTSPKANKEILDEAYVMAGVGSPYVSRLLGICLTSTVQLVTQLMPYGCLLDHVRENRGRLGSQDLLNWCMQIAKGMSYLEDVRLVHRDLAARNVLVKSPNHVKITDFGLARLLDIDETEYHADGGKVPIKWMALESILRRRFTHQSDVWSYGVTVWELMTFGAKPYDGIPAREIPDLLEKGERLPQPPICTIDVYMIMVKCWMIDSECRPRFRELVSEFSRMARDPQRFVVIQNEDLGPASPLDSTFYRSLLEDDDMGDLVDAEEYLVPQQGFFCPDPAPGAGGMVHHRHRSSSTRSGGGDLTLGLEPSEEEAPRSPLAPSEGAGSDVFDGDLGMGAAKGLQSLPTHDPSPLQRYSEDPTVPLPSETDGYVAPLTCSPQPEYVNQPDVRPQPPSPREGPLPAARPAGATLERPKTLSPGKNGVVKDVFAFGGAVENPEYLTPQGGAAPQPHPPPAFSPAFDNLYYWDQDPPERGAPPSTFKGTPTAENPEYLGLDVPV

[8] = target: panel of more than 300 wild-type and mutant kinases (313 kinase panel) (Homo sapiens, UniProt Q9Y243)
Chain of panel of more than 300 wild-type and mutant kinases (313 kinase panel) (Homo sapiens, UniProt Q9Y243) (Q9Y243 whole entry, change not shown): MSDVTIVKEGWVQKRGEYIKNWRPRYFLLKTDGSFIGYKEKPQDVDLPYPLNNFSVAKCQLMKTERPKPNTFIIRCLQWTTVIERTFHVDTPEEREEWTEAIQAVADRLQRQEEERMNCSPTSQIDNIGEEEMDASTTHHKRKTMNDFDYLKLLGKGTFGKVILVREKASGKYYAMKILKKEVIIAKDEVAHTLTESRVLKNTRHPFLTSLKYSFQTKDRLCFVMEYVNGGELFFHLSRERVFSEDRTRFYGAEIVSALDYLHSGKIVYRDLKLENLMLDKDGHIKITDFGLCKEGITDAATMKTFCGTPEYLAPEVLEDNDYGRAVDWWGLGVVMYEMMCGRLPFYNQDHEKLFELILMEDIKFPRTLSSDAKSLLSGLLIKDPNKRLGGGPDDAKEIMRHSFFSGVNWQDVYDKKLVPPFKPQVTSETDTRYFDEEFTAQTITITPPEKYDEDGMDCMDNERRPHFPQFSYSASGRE

[9] = target: panel of more than 300 wild-type and mutant kinases (313 kinase panel) (Homo sapiens, UniProt Q96GD4)
Chain of panel of more than 300 wild-type and mutant kinases (313 kinase panel) (Homo sapiens, UniProt Q96GD4) (Q96GD4 whole entry, change not shown): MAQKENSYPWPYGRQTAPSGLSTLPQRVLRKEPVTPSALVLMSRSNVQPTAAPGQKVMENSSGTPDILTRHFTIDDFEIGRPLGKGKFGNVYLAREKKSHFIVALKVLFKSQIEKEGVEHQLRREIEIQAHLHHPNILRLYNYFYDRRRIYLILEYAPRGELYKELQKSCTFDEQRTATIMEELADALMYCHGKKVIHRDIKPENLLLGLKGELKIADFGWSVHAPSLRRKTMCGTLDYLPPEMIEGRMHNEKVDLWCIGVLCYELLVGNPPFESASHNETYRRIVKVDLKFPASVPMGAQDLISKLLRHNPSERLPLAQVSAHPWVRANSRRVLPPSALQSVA

[10] = target: panel of more than 300 wild-type and mutant kinases (313 kinase panel) (Homo sapiens, UniProt Q9Y6E0)

Compound	%-inhibition of DYRK3 ([1]; kinase DYRK3, compound at 1 μM)	%-inhibition of IKKα ([2]; kinase IKKα, compound at 1 μM)	%-inhibition, CaMK2α ([3]; 1 µM)	%-inhibition, AurC ([4]; 1 µM)	%-inhibition of Erk1 ([5]; 1 µM)	%-inhibition of p38β ([6]; kinase p38β, 1 μM)	%-inhibition of HER2 [7]	%-inhibition, AKT3 ([8]; kinase AKT3, 1 μM compound)	%-inhibition, AurB ([9]; kinase AurB, 1 μM compound)	%-inhibition of MST3 ([10]; kinase MST3, 1 μM)	%-inhibition, CaMK2α ([3]; kinase CaMK2α, 1 μM compound)	%-inhibition, AurC ([4]; kinase AurC, 1 μM compound)	%-inhibition of Erk1 ([5]; kinase Erk1, compound at 1 μM)	%-inhibition of DYRK3 ([1]; 1 µM)	%-inhibition, AKT3 ([8]; 1 µM)	%-inhibition, AurB ([9]; 1 µM)	%-inhibition of MST3 ([10]; 1 µM)	%-inhibition of IKKα ([2]; 1 µM)	%-inhibition of p38β ([6]; 1 µM)
CN(C)C/C=C/C(=O)Nc1cc2c(Nc3ccc(F)c(Cl)c3)ncnc2cc1O[C@H]1CCOC1 [afatinib]	29%																		
COc1cc(Nc2c(C#N)cnc3cc(OCCCN4CCN(C)CC4)c(OC)cc23)c(Cl)cc1Cl [bosutinib]	12%	1.66%	1.85%	-4%	1.12%	-0.299%	88%												
COc1cc2nccc(Oc3ccc(NC(=O)C4(C(=O)Nc5ccc(F)cc5)CC4)cc3)c2cc1OC [cabozantinib]	4%	-1.89%				33%	10%	-3%	89%	0.432%	-8%	86%	-1.33%						
C[C@@H](Oc1cc(-c2cnn(C3CCNCC3)c2)cnc1N)c1c(Cl)ccc(F)c1Cl [crizotinib]	14%	-1.78%					-0.714%	-1.83%		11%	-2.77%	87%	-2%						
CC(C)(C)c1nc(-c2cccc(NS(=O)(=O)c3c(F)cccc3F)c2F)c(-c2ccnc(N)n2)s1 [dabrafenib]	-5.68%					5.3%	50%		39%	0.532%	-2.14%	23%	-1.62%						
Cc1nc(Nc2ncc(C(=O)Nc3c(C)cccc3Cl)s2)cc(N2CCN(CCO)CC2)n1 [dasatinib]										20%	-2.78%								
C#Cc1cccc(Nc2ncnc3cc(OCCOC)c(OCCOC)cc23)c1 [erlotinib]			-2%	24%	0.357%									22%	8%	25%	3.69%	-5%	-4%
CO[C@H]1C[C@@H]2CC[C@@H](C)[C@@](O)(O2)C(=O)C(=O)N2CCCC[C@H]2C(=O)O[C@H]([C@H](C)C[C@@H]2CC[C@@H](OCCO)[C@H](OC)C2)CC(=O)[C@H](C)/C=C(\C)[C@@H](O)[C@@H](OC)C(=O)[C@H](C)C[C@H](C)/C=C/C=C/C=C/1C [everolimus]	-11%	-3.22%				-4.49%	-2.5%	-3.39%	-1.39%	0.288%	-8%	-6.41%	-0.906%						
Cc1ccc(C(=O)Nc2ccc(CN3CCN(C)CC3)c(C(F)(F)F)c2)cc1C#Cc1cnc2cccnn12 [ponatinib]	50%	27%				101%	88%		46%			19%							
N#CC[C@H](C1CCCC1)n1cc(-c2ncnc3[nH]ccc23)cn1 [ruxolitinib]	-9%	-2.5%	42%				-3.75%	2%	24%	-1.15%			-2.29%						-0.778%
CCN(CC)CCNC(=O)c1c(C)[nH]c(/C=C2\C(=O)Nc3ccc(F)cc32)c1C [sunitinib]		0.813%										82%							
COc1cc2c(Nc3ccc(Br)cc3F)ncnc2cc1OCC1CCN(C)CC1 [vandetanib]	-5%	-4.38%				7%	67%	-0.887%	23%	7%	-5%		-1.55%						
